Data published in US10519138B2, “Modulators of SOCE, compositions, and uses thereof” (Università degli Studi del Piemonte Orientale “Amedeo …, priority 2016, dated 2019).

Tested on: Store Operated Calcium Entry (SOCE) in BV-2 cells
Test: Fluo-4 fluorimetric assay of tBHQ-induced store operated calcium entry in BV-2 cells
Assay type: cell-based, mouse
Settings: Mus musculus, 10 μM, SOCE inhibition based on tBHQ-induced calcium influx
Procedure: (A) BV-2 cells were plated in poly-d-lysine coated 24-well plate and incubated overnight. After 24 hours, cells were loaded with 2 μM Fluo-4 and placed in an extracellular solution containing 0 mM Ca^2+. Stores were depleted with 50 μM tBHQ and calcium influx was stimulated by the addition of 2 mM Ca^2+ alone (Ctrl), or in conbination with: compound with no activity (NM-3A), and compounds that positively (4-(1-(4-(3,5-bis(trifluoromethyl)-1H-pyrazol-1-yl)phenyl)-1H-1,2,3-triazol-4-yl)benzoic acid) and negatively (3-(1-(4-(4-(ethoxycarbonyl)-5-(trifluoromethyl)-1H-pyrazol-1-yl)phenyl)-1H-1,2,3-triazol-4-yl)benzoic acid) regulate SOCE. Calcium responses are expressed as changes in fluorescence intensity before and after the addition of selected modulators. (B) BV-2 cells were assayed for a calcium response to different concentrations of 3-(1-(4-(4-(ethoxycarbonyl)-5-(trifluoromethyl)-1H-pyrazol-1-yl)phenyl)-1H-1,2,3-triazol-4-yl)benzoic acid and 4-(1-(4-(3,5-bis(trifluoromethyl)-1H-pyrazol-1-yl)phenyl)-1H-1,2,3-triazol-4-yl)benzoic acid (0.1-0.3-1-3-10-30-100 μM) using Fluo-4 fluorimetric assay. Concentration-response curves represent the AUC % of both compounds as compared to positive control.
Immortalized primary mouse microglial BV-2 cells were obtained from ATCC (ATCC® CRL-2540™, Rockville, Md., USA) and were cultured in Dulbecco's Modified Eagle's Medium (DMEM; Sigma-Aldrich, Italy), supplemented with 10% heat-inactivated FBS (Gibco, Italy), 1-glutamine 50 mg/mL (Sigma-Aldrich, Italy), penicillin 10 U/mL and streptomycin […] (Sigma-Aldrich, Italy) at 37° C., under a 5% CO2 humidified atmosphere. For experiments, the cells were plated 2×10^4 per ml in 24 well plates) or onto glass coverslips at concentrations of 4×10^4 per mL (24 mm diame-ter coverslips in 6 well plates).
BV-2 cells were loaded with 5 μM Fluo-4 AM in presence of 0.02% of Pluronic-127 (both from Life Technologies, Italy) and 10 μM sulfinpyrazone in Krebs-Ringer buffer (KRB, 135 mM NaCl, 5 mM KCl, 0.4 mM KH2PO4, 1 mM MgSO4, 5.5 mM glucose, 20 mM HEPES, pH 7.4) containing 2 mM CaCl2 (30 min, room temperature). Subsequently, cells were washed and incubated with KRB for other 30 min to allow de-esterification of Fluo-4 AM. Experiments were carried out prior to and during exposure of the cells to the Ca^2+-free solution. In the absence of Ca^2+, the intracellular Ca^2+ stores were depleted by 2,5-t-butylhydroquinone (tBHQ, 50 μM; Sigma-Aldrich, Italy), a SERCA poison, and then calcium 2 mM was re-added to the extracellular solution. Fluorescence is then monitored sequentially for a second in each well for 600 seconds with excitation at 494 nm and an emission wavelength at 516 nm on the V3 Victor plate-reader (Perkin Elmer), generating time-curves for each well. Data were analysed using Microsoft Excel and GraphPad Prism.
The percentage of SOCE inhibition for each compound was determined based on value of tBHQ-induced calcium influx into BV-2 cells (Table 2).

## COc1ccc(-n2cc(-c3ccc(-n4nc(C(F)(F)F)cc4C(F)(F)F)cc3)nn2)cc1OC [4-(4-(3,5-bis(trifluoromethyl)-1H-pyrazol-1-yl)phenyl)-1-(3,4-dimethoxyphenyl)-1H-1,2,3-triazole]
  inhibition at 10 µM: 5.7%

## COc1ccc(-n2cc(-c3ccc(-n4nc(C(F)(F)F)cc4C(F)(F)F)cc3)nn2)cc1 [4-(4-(3,5-bis(trifluoromethyl)-1H-pyrazol-1-yl)phenyl)-1-(4-methoxyphenyl)-1H-1,2,3-triazole]
  inhibition at 10 µM: 21.3%

## CCOC(=O)c1cnn(-c2ccc(-c3cn(-c4cccc(N)c4)nn3)cc2)c1C(F)(F)F [ethyl 1-(4-(1-(3-aminophenyl)-1H-1,2,3-triazol-4-yl)phenyl)-5-(trifluoromethyl)-1H-pyrazole-4-carboxylate]
  inhibition at 10 µM: 23%

## CCOC(=O)c1cnn(-c2ccc(-n3cc(-c4ccc(N)cc4)nn3)cc2)c1C(F)(F)F [ethyl 1-(4-(4-(4-aminophenyl)-1H-1,2,3-triazol-1-yl)phenyl)-5-(trifluoromethyl)-1H-pyrazole-4-carboxylate]
  inhibition at 10 µM: 8.31%

## CCOC(=O)c1cnn(-c2ccc(-n3cc(-c4ccccc4NC(C)=O)nn3)cc2)c1C(F)(F)F [ethyl 1-(4-(4-(2-acetamidophenyl)-1H-1,2,3-triazol-1-yl)phenyl)-5-(trifluoromethyl)-1H-pyrazole-4-carboxylate]
  inhibition at 10 µM: 28%

## O=C(O)CCCn1cc(-c2ccc(-n3nc(C(F)(F)F)cc3C(F)(F)F)cc2)nn1 [4-(4-(4-(3,5-bis(trifluoromethyl)-1H-pyrazol-1-yl)phenyl)-1H-1,2,3-triazol-1-yl)butanoic acid]
  inhibition at 10 µM: 18.3%

## CCOC(=O)c1cnn(-c2ccc(-c3cn(-c4ccc(OC)c(OC)c4)nn3)cc2)c1C(F)(F)F [ethyl 1-(4-(1-(3,4-dimethoxyphenyl)-1H-1,2,3-triazol-4-yl)phenyl)-5-(trifluoromethyl)-1H-pyrazole-4-carboxylate]
  inhibition at 10 µM: 12.8%

## CCOC(=O)c1cnn(-c2ccc(-n3cc(-c4ccccc4)nn3)cc2)c1C(F)(F)F [ethyl 1-(4-(4-phenyl-1H-1,2,3-triazol-1-yl)phenyl)-5-(trifluoromethyl)-1H-pyrazole-4-carboxylate]
  inhibition at 10 µM: 14.3%

## CCCC(C)OC(=O)c1cnn(-c2ccc(-n3cc(-c4cccc(C(=O)O)c4)nn3)cc2)c1C(F)(F)F (stereo not shown) [3-(1-(4-(4-((pentan-2-yloxy)carbonyl)-5-(trifluoromethyl)-1H-pyrazol-1-yl)phenyl)-1H-1,2,3-triazol-4-yl)benzoic acid]
  inhibition at 10 µM: 91.9%

## CCOC(=O)c1cnn(-c2ccc(-n3cc(-c4cccc(O)c4)nn3)cc2)c1C(F)(F)F [ethyl 1-(4-(4-(3-hydroxyphenyl)-1H-1,2,3-triazol-1-yl)phenyl)-5-(trifluoromethyl)-1H-pyrazole-4-carboxylate]
  inhibition at 10 µM: 3.53%

## CCOC(=O)c1cnn(-c2ccc(-c3cn(-c4ccc(OC)cc4)nn3)cc2)c1C(F)(F)F [ethyl 1-(4-(1-(4-methoxyphenyl)-1H-1,2,3-triazol-4-yl)phenyl)-5-(trifluoromethyl)-1H-pyrazole-4-carboxylate]
  inhibition at 10 µM: 16.9%

## CCOC(=O)c1cnn(-c2ccc(-c3cn(-c4ccncc4)nn3)cc2)c1C(F)(F)F [ethyl 1-(4-(1-(pyridin-4-yl)-1H-1,2,3-triazol-4-yl)phenyl)-5-(trifluoromethyl)-1H-pyrazole-4-carboxylate]
  inhibition at 10 µM: 20%

## CCOC(=O)c1cnn(-c2ccc(-c3cn(-c4ccc(C(=O)O)cc4)nn3)cc2)c1C(F)(F)F [4-(4-(4-(4-(ethoxycarbonyl)-5-(trifluoromethyl)-1H-pyrazol-1-yl)phenyl)-1H-1,2,3-triazol-1-yl)benzoic acid]
  inhibition at 10 µM: 19.8%

## CCOC(=O)c1cnn(-c2ccc(-n3cc(-c4cccc(C(N)=O)c4)nn3)cc2)c1C(F)(F)F [ethyl 1-(4-(4-(3-carbamoylphenyl)-1H-1,2,3-triazol-1-yl)phenyl)-5-(trifluoromethyl)-1H-pyrazole-4-carboxylate]
  inhibition at 10 µM: 2.27%

## CCOC(=O)c1cnn(-c2ccc(-n3cc(-c4ccc(OC)c(OC)c4)nn3)cc2)c1C(F)(F)F [ethyl 1-(4-(4-(3,4-dimethoxyphenyl)-1H-1,2,3-triazol-1-yl)phenyl)-5-(trifluoromethyl)-1H-pyrazole-4-carboxylate]
  inhibition at 10 µM: 17.2%

## CCOC(=O)c1cnn(-c2ccc(-n3cc(-c4ccc(OC)cc4)nn3)cc2)c1C(F)(F)F [ethyl 1-(4-(4-(4-methoxyphenyl)-1H-1,2,3-triazol-1-yl)phenyl)-5-(trifluoromethyl)-1H-pyrazole-4-carboxylate]
  inhibition at 10 µM: 4.77%

## CCOC(=O)c1cnn(-c2ccc(-n3cc(-c4cccc(N)c4)nn3)cc2)c1C(F)(F)F [ethyl 1-(4-(4-(3-aminophenyl)-1H-1,2,3-triazol-1-yl)phenyl)-5-(trifluoromethyl)-1H-pyrazole-4-carboxylate]
  inhibition at 10 µM: 24.8%

## CCOC(=O)c1cnn(-c2ccc(-c3cn(-c4cccnc4)nn3)cc2)c1C(F)(F)F [ethyl 1-(4-(1-(pyridin-3-yl)-1H-1,2,3-triazol-4-yl)phenyl)-5-(trifluoromethyl)-1H-pyrazole-4-carboxylate]
  inhibition at 10 µM: 37.4%

## Oc1cccc(-c2cn(-c3ccc(-n4nc(C(F)(F)F)cc4C(F)(F)F)cc3)nn2)c1 [3-(1-(4-(3,5-bis(trifluoromethyl)-1H-pyrazol-1-yl)phenyl)-1H-1,2,3-triazol-4-yl)phenol]
  inhibition at 10 µM: 4.06%

## FC(F)(F)c1cc(C(F)(F)F)n(-c2ccc(-n3cc(-c4ccccc4)nn3)cc2)n1 [1-(4-(3,5-bis(trifluoromethyl)-1H-pyrazol-1-yl)phenyl)-4-phenyl-1H-1,2,3-triazole]
  inhibition at 10 µM: 0.84%

## CCOC(=O)c1cnn(-c2ccc(-n3cc(-c4cccc(C(=O)OC)c4)nn3)cc2)c1C(F)(F)F [ethyl 1-(4-(4-(3-(methoxycarbonyl)phenyl)-1H-1,2,3-triazol-1-yl)phenyl)-5-(trifluoromethyl)-1H-pyrazole-4-carboxylate]
  inhibition at 10 µM: 21.8%

## O=C(O)CCCc1cn(-c2ccc(-n3nc(C(F)(F)F)cc3C(F)(F)F)cc2)nn1 [4-(1-(4-(3,5-bis(trifluoromethyl)-1H-pyrazol-1-yl)phenyl)-1H-1,2,3-triazol-4-yl)butanoic acid]
  inhibition at 10 µM: 19.9%
